In patent publication US20240302387A1, “HIGHLY FLUORINATED COMPOUNDS FOR 19F MRI-BASED THERMOMETRY” (Regents of the University of Minnesota, priority 2023, published 2024):
Entries after “also recorded” stand apart in the source; their conditions may differ. Like-named read-outs stand apart in the source and are kept apart here. Blank lines part the entries; values can stand above or below the compound they belong to.

Assays:
Type in all cases: physicochemical
[1] = Phase at room temperature
Description: All seven organofluorine temperature sensors of Table 1a were synthesized under the optimized reaction conditions for enabling facile synthesis in the following General Scheme and Examples. Specifically, temperature sensors DD1-DD7 were prepared through an SNAr reaction. Compounds DD-2 and DD-4 required one extra oxidation of DD-1 and DD-3 to provide the respective sulfones. Yields of the SNAr reactions using thiol, HS—(CF2)7—CF3, were low […], while the yields with HS—CH2CH2CH2CF2CF3 fell in the range of […].

[2] = 19F NMR aqueous solubility limit measurement; details: for solubility: pH 6.9, aqueous with cosolvent or surfactant or cyclodextrin, kinetic from dmso stock
Description: ^19F NMR Aqueous Solubility Limit Measurements: Compound was dissolved in DMSO and then added to 10 mM pH=6.9 phosphate buffer/D2O (9:1 v/v) to make 5% DMSO stock in 500 μL phosphate buffer/D2O at concentration of 10/50/100/150/200/250 μM. Samples were measured with Bruker AVANCE III 500@ equipped with a 5 mm BBFO SmartProbe®. ^19F spectra were obtained at 471 MHz with dummy scans=4, acquisition time=0.57 s, delay time =1 s, […], and the number of scans=800 UV-Visible Spectra: Stock solutions of DD-1, DD-3, and DD-5 were prepared at 10 mM in DMSO and stored in the dark. A 10 mM phosphate buffer at pH=7 was prepared and stock solutions were diluted to 50 μM. UV-visible absorption spectra were obtained using a Horiba Aqualog®.

[3] = Direct photolysis kinetics and quantum yield, solar simulator; details: for quantum yield of direct photolysis: 10 mM pH 7 phosphate buffer
[4] = Quantitative 19F NMR fluorine mass balance after photolysis (solar simulator)
Description: (§1) Quantitative ^19F NMR was conducted to determine if any of the fluorinated functional groups were susceptible to degradation. The environmental persistence and potential impact of these fluorinated temperature sensors will be a function of not only the persistence of the parent compound, but also that of any fluorinated reaction products. Photolysis and ozonation represent natural and engineered processes, respectively, that could degrade these compounds after their use and introduction into the water system.
(§2) ^19F NMR spectra were taken to quantify and partition degradation products from the parent compound signals for photolysis and ozonation (FIG. 7). […] The solutions analyzed contained 50 μM of DD-1 with 14 fluorine atoms, thus a total fluorine concentration of 700 μM, with 200 μM attributed to the aromatic fluorines (Ar—F; −137.04 ppm), 200 μM attributed to the CF2 (−121.34 ppm), and 300 μM attributed to the CF3 (−89.14 ppm) as shown in FIG. 7. […] Top: regional spectrum of untreated DD-1. Middle: regional spectrum of DD-1 degraded by solar simulator. Bottom: regional spectrum of DD-1 degraded by ozone. (left) Spectra of CF3 region. (middle) Spectra of CF2 region. (right) Spectra of Ar—F region. For photolysis and ozonation, 61% and 87% the parent Ar—F signal was lost respectively. A peak at ˜139.1 ppm appeared following ozonation and is hypothesized to be a hydroxylated aromatic ring product, which is a known reaction process for aromatics during ozonation (Vialaton, D., et al (1998) J Photochem Photobiol A Chem 119 (1):39-45). For the parent CF2, the signal decreased by 45% and 79%, but new CF2 products appeared upfield. Under both degradative conditions, new peaks appear in the near regions of the CF2, likely due to ring opening processes. […] For the parent CF3, the signal decreased by 38% and 69%, again with new CF3 products appearing upfield. An excess of 39 μM and 48 μM fluorine for the solar simulator and ozonation, respectively, was found within the CF3 region. These groups are hypothesized to be products produced by opening of the aromatic ring, which could be vinyl fluorines with oxygen and/or sulfur substituents.
Photolysis Experiments: Stock solutions were diluted to 10 μM in the phosphate buffer for kinetic experiments and 50 μM for ^19F NMR experiments. Solutions were placed in 10 mL quartz tubes sealed with cork stoppers with no contact to the solution. The solutions were photolyzed in (i) an Atlas Suntest CPS+® solar simulator with a 1500 W xenon lamp at an intensity of 765 W m-2 using a wavelength range of 290-800 nm at a 30° angle, and (ii) a 450 W medium pressure polychromatic mercury vapor lamp with a quartz immersion well with cooling water circulation, a Pyrex 280 nm cutoff filter (Ace Glass), and a merry-go-round sample holder. Samples were photolyzed until ˜60 to 80% degradation of the parent compound was achieved. For each compound an equivalent tube was prepared and wrapped in aluminum foil as a dark control. Experiments were performed in triplicate

[5] = Quantitative 19F NMR fluorine mass balance after ozonation
Description: as §1, §2
Ozone-mediated Degradation: The 10 mM DMSO stock solution of DD-1 was used to make 100 mL of a 50 μM solution in the 10 mM pH=7 phosphate buffer. The solution was placed in an Erlenmeyer flask in an ice bath. Ozone (O3) was produced using ultra-high pure oxygen gas (99.99%) with a Pacific Ozone O3 generator and bubbled directly into the sample solution. O3 concentration was previously measured using UV-Vis spectroscopy (Beckman Coulter DU 530). The concentration of O3 (with an ε=3000 M^−1 cm^−1) was determined by direct absorbance at 258 nm. By using a 3:1 dilution, the absorbance obtained is equivalent to the O3 concentration in mM. After 30 minutes the O3 concentration in ultrapure water was 0.61 mM or 29.16 mg/L. Samples were taken over time for 300 minutes and parent compound degradation was monitored via HPLC.

[6] = Direct photolysis kinetics, mercury vapor lamp

Compound: Fc1c(F)c(SCCCC(F)(F)C(F)(F)F)c(F)c(F)c1SCCCC(F)(F)C(F)(F)F [DD-1, (perfluoro-1,4-phenylene)bis((4,4,5,5,5-pentafluoropentyl)sulfane)]
Phase [1]: liquid phase at room temperature | solubility [2]: ≤ 200 µM | quantum yield of direct photolysis [3]: 0.0272 mol Ei^−1 | Fluoride (F−) production ([4]; photolysis, 50 μM): 79 µM | parent Ar—F 19F NMR signal lost ([4]; photolysis, 50 μM): 61% | parent CF2 signal decrease ([4]; photolysis, 50 μM): 45% | parent CF3 signal decrease ([4]; photolysis, 50 μM): 38% | sum of fluorine concentrations for Ar—F, F− and ring opening products/vinyl F ([4]; photolysis, initial Ar—F 200 μM): 198 µM | excess fluorine found within the CF3 region ([4]; solar simulator, 50 μM): 39 µM | sum of fluorine concentrations for Ar—F, F− and ring opening products/vinyl F ([5]; O3, initial Ar—F 200 μM): 200 µM | Fluoride (F−) production ([5]; ozonation, 50 μM): 117 µM | excess fluorine found within the CF3 region ([5]; ozonation, 50 μM): 48 µM | parent Ar—F 19F NMR signal lost ([5]; ozonation, 50 μM): 87% | parent CF2 signal decrease ([5]; ozonation, 50 μM): 79% | parent CF3 signal decrease ([5]; ozonation, 50 μM): 69%

Compound: FC(F)(F)C(F)(F)C(F)(F)C(F)(F)N(C(F)(F)C(F)(F)C(F)(F)C(F)(F)F)C(F)(F)C(F)(F)C(F)(F)C(F)(F)F [CC-1, perfluorotributylamine, reference compound]
Phase [1]: liquid | Phase ([1]; listed as CC-1 PFTBA): solid at room temperature | water solubility (in words) [2]: limited water solubility

Compound: O=S(=O)(CCCC(F)(F)C(F)(F)F)c1c(F)c(F)c(-c2c(F)c(F)c(S(=O)(=O)CCCC(F)(F)C(F)(F)F)c(F)c2F)c(F)c1F [DD-4, 2,2′,3,3′,5,5′,6,6′-octafluoro-4,4′-bis((4,4,5,5,5-pentafluoropentyl)sulfonyl)-1,1′-biphenyl]
Phase [1]: solid

Phase [1]: white solids; also recorded: solid
Compound: O=S(=O)(CCCC(F)(F)C(F)(F)F)c1c(F)c(F)c(S(=O)(=O)CCCC(F)(F)C(F)(F)F)c(F)c1F [DD-2, 1,2,4,5-tetrafluoro-3,6-bis((4,4,5,5,5-pentafluoropentyl)sulfonyl) benzene]

Compound: O=S(=O)(c1c(F)c(F)c(SCCCC(F)(F)C(F)(F)F)c(F)c1F)c1c(F)c(F)c(SCCCC(F)(F)C(F)(F)F)c(F)c1F [DD-6, (sulfonylbis(2,3,5,6-tetrafluoro-4,1-phenylene))bis((4,4,5,5,5-pentafluoropentyl)sulfane)]
Phase [1]: solid

Compound: Fc1c(F)c(Sc2c(F)c(F)c(SCCCC(F)(F)C(F)(F)F)c(F)c2F)c(F)c(F)c1SCCCC(F)(F)C(F)(F)F [DD-5, bis(2,3,5,6-tetrafluoro-4-((4,4,5,5,5-pentafluoropentyl)thio)phenyl)sulfane]
Phase [1]: solid | rank of photolysis rate constant [3]: fastest | quantum yield of direct photolysis [3]: 0.0520 mol Ei^−1 | rank of photolysis rate constant [6]: fastest

Compound: Fc1c(F)c(SCCC(F)(F)C(F)(F)C(F)(F)C(F)(F)C(F)(F)C(F)(F)C(F)(F)C(F)(F)F)c(F)c(F)c1SCCC(F)(F)C(F)(F)C(F)(F)C(F)(F)C(F)(F)C(F)(F)C(F)(F)C(F)(F)F [CC-3, (perfluoro-1,4-phenylene)bis((3,3,4,4,5,5,6,6,7,7,8,8,9,9,10,1 0,10-heptadecafluorodecyl)sulfane), reference compound]
Phase [1]: solid

Compound: Fc1c(F)c(-c2c(F)c(F)c(SCCC(F)(F)C(F)(F)C(F)(F)C(F)(F)C(F)(F)C(F)(F)C(F)(F)C(F)(F)F)c(F)c2F)c(F)c(F)c1SCCC(F)(F)C(F)(F)C(F)(F)C(F)(F)C(F)(F)C(F)(F)C(F)(F)C(F)(F)F [CC-2, (perfluoro-[1,1′-biphenyl]-4,4′-diyl)bis((3,3,4,4,5,5,6,6,7,7,8,8,9,9,10,10,10-heptadecafluorodecyl)sulfane), reference compound]
Phase [1]: solid

Compound: Fc1c(F)c(-c2c(F)c(F)c(SCCCC(F)(F)C(F)(F)F)c(F)c2F)c(F)c(F)c1SCCCC(F)(F)C(F)(F)F [DD-3, (perfluoro-[1,1′-biphenyl]-4,4′-diyl)bis((4,4,5,5,5-pentafluoropentyl)sulfane)]
Phase [1]: liquid phase at room temperature | solubility [2]: ≤ 200 µM | quantum yield of direct photolysis [3]: 0.0267 mol Ei^−1
